The target in test [1] is T1, Prostaglandin G/H synthase 2 (Homo sapiens) (UniProt P35354).
T1 sequence (whole entry): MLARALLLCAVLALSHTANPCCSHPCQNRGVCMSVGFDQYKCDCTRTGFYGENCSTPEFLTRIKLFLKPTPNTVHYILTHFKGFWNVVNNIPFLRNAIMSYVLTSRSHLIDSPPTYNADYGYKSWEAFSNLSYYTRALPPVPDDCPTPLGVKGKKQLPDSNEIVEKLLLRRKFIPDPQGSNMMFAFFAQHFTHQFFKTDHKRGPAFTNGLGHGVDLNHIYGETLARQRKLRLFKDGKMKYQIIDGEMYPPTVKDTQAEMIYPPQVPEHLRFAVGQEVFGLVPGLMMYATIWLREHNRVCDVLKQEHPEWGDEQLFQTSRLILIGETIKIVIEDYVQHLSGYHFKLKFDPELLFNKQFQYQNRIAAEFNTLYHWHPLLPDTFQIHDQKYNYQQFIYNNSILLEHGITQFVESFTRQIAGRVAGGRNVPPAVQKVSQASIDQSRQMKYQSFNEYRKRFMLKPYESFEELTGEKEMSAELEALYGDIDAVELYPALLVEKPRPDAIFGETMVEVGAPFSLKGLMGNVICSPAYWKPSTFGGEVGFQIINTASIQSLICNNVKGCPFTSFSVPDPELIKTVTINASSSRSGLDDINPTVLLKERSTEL
Briefly: Inhibition of cyclooxygenase-2 in Homo sapiens (human) whole blood assessed as LPS-induced PGE2 production at 10 uM incubated 15 min prior to LPS challenge measured after 24 hr by enzyme immunoassay.

The target in test [2] is T2, Prostaglandin G/H synthase 1 (Homo sapiens, UniProt P23219). Briefly: Inhibition of cyclooxygenase-1 in Homo sapiens (human) whole blood assessed as thromboxane B2 production at 100 uM after 1 hr by enzyme immunoassay.
T2 sequence (P23219 whole entry): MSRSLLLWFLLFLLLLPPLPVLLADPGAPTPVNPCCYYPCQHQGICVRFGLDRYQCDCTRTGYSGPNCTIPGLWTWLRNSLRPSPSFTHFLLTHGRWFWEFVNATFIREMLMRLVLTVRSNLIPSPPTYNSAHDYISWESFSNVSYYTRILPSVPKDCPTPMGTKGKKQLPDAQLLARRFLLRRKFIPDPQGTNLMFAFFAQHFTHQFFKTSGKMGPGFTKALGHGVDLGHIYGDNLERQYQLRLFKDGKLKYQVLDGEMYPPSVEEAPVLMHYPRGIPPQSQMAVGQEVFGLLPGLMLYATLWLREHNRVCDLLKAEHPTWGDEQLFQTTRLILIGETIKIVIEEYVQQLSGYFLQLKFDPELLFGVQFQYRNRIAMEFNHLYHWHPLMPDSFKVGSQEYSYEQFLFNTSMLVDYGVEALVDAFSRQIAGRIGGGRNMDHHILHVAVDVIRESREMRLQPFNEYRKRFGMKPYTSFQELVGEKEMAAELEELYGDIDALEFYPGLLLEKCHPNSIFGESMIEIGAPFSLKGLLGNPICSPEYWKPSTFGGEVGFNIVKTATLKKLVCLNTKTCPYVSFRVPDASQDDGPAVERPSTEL
The target in test [3] is T1, Prostaglandin G/H synthase 2 (Homo sapiens). Description: Inhibition of cyclooxygenase-2 in Homo sapiens (human) whole blood assessed as LPS-induced PGE2 production at 100 uM incubated 15 min prior to LPS challenge measured after 24 hr by enzyme immunoassay.
Test [4] addresses T2, Prostaglandin G/H synthase 1. Description: Inhibition of cyclooxygenase-1 in Homo sapiens (human) whole blood assessed as thromboxane B2 production at 10 uM after 1 hr by enzyme immunoassay.
For test [5], the target named is T3, Prostaglandin G/H synthase 2 (Homo sapiens, UniProt P35354).
T3 sequence (P35354 whole entry): T1 sequence (whole entry)
Description: Inhibition of Homo sapiens (human) cyclooxygenase-2.

The target of test [6] is T2, Prostaglandin G/H synthase 1. Description: Inhibition of COX-1 (unknown origin).

Calls of active or inactive are those of the source. The calls are words filed in the database; no cut-off is given here.

`Nc1cc(-c2ccc(Cl)cc2)cc(-c2ccc(Cl)cc2)c1`: the inhibition amounted to 76% in test [1], 93% in test [2], 99% in test [3] and 19% in test [4].

As to `CSc1ccc(-c2cc(N)cc(-c3ccccc3)c2)cc1`, the inhibition entry in test [1] and in test [3] was “inactive” throughout. Moreover, the inhibition in test [2] is 92%; in test [4], 29%.

On to `CCOc1ccc(-c2cc(N)cc(-c3ccccc3)c2)cc1`, for which the inhibition entry in test [1] and in test [3] was “inactive” each time. In addition, the inhibition in test [2] is 88%; in test [4], 20%.

For `CCOc1ccc(-c2cc(N)cc(-c3ccc(OCC)cc3)c2)cc1`, the inhibition entry in test [1], in test [2], in test [3] and in test [4] was “inactive” in each case.

Turning to `Cc1ccc(-c2cc(N)cc(-c3ccccc3)c2)cc1`, the inhibition worked out at 49% in test [1], 96% in test [2], 95% in test [3] and 46% in test [4].

On to `CS(=O)(=O)c1ccc(-c2cc(N)cc(-c3ccccc3)c2)cc1`, for which the inhibition entry in test [1] and in test [3] was “inactive” each time. Also, the values for the inhibition in test [2] and in test [4] were 85% and 23%, respectively.

Turning to `Cc1c(CC(=O)O)cc(-c2ccccc2)cc1-c1ccccc1`, the IC50 stood at 120 µM in test [5] and 17 µM in test [6].

`Cc1ccc(-c2cc(N)cc(-c3ccc(C)cc3)c2)cc1`: the inhibition in test [1] was 57%; in test [2], 87%; in test [3] it was 86%; in test [4], 27%.

As to `COc1ccc(-c2cc(N)cc(-c3ccccc3)c2)cc1`, the inhibition entry in test [1] and in test [4] was “inactive” in each case. For the same molecule, the results for the inhibition in test [2] and in test [3] were 92% and 78%, respectively.

As to `Nc1cc(-c2ccccc2)cc(-c2ccc(Cl)cc2)c1`, the inhibition amounted to 85% in test [1], 97% in test [2], 98% in test [3] and 63% in test [4].

For `Nc1cc(-c2ccccc2)cc(-c2ccccc2)c1`, the inhibition amounted to 68% in test [1], 98% in test [2], 92% in test [3] and 56% in test [4].

(Values after ChEMBL document CHEMBL3044614, “Synthesis and pharmacological evaluation of m-terphenyl amines as cyclooxygenase inhibitors” (Med Chem Res, 2007).)
